From patent US7803930B2, “Antisense modulation of apolipoprotein B-expression” (Isis Pharmaceuticals, Inc., priority 2002, dated 2010)
In the oligonucleotide strings, read from the 5' end, every base follows the letter of its sugar. An asterisk marks phosphorothioate; unmarked linkages are phosphodiester. Other units and linkages are bracketed, terminal groups are in braces. A string of capitals states the bases alone. e = 2'-O-(2-methoxyethyl) (MOE); [5mC] = 5-methylcytosine; d = 2'-deoxy (DNA)

Tests used:
[1] = tested on: human apolipoprotein B mRNA; assay: Apolipoprotein B mRNA in primary human hepatocytes, real-time PCR; format: cell-based; details: for apolipoprotein B mRNA expression: 5, 10, 50 or 150 nM
Procedure: In accordance with the present invention, antisense oligonucleotides targeted to human apolipoprotein B were tested in dose response studies in primary human hepatocytes. Pre-plated primary human hepatocytes were purchased from Invitro Technologies (Baltimore, Md.). Cells were cultured in high-glucose DMEM (Invitrogen Corporation, Carlsbad, Calif.) supplemented with 10% fetal bovine serum (Invitrogen Corporation, Carlsbad, Calif.), 100 units/mL and 100 μg/mL streptomycin (Invitrogen Corporation, Carlsbad, Calif.).
Human primary hepatocytes were treated with ISIS 301012 (SEQ ID NO: 247) at 10, 50, 150 or 300 nM. Untreated cells and cells treated with the scrambled control oligonucleotide ISIS 113529 ([…], SEQ ID NO: 859) served as two groups of control cells. ISIS 113529 is a chimeric oligonucleotide (“gapmer”) 20 nucleotides in length, composed of a central “gap” region consisting of ten 2′-deoxynucleotides, which is flanked on both sides (5′ and 3′ directions) by five-nucleotide “wings”. The wings are composed of 2′-methoxyethyl (2′-MOE)nucleotides. The internucleoside (backbone) linkages are phosphorothioate (P═S) throughout the oligonucleotide. All cytidines are 5-methylcytidines.
(§1) Oligonucleotides were introduced into cells through LIPOFECTIN-mediated transfection as described by other examples herein. Cells were harvested both 24 and 48 hours after treatment with oligonucleotide, and both RNA and protein were isolated. Additionally, the culture media from treated cells was collected for ELISA analysis of apolipoprotein B protein secretion.
Apolipoprotein B mRNA expression was determined by real-time PCR of RNA samples as described by other examples herein. Each result represents 6 experiments.
(§2) An additional experiment was performed to test the effects of ISIS 271009 (SEQ ID NO: 319), ISIS 281625 (SEQ ID NO: 224) and ISIS 301027 (SEQ ID NO: 262) on human apolipoprotein B mRNA in human primary hepatocytes. Cells were cultured as described herein and treated with 5, 10, 50 or 150 nM of ISIS 271009, ISIS 281625 or ISIS 301027 for a period of 24 hours. The control oligonucleotides ISIS 13650 (SEQ ID NO: 806) and ISIS 113529 (SEQ ID NO: 859) were used at 50 or 150 nM. Human apolipoprotein B mRNA expression was evaluated by real-time PCR as described by other examples herein. Apolipoprotein B protein secreted into the cultured cell media was measured in the samples treated with 50 and 150 nM of oligonucleotide, using a target protein specific ELISA kit (ALerCHEK Inc., Portland, Me.).

apolipoprotein B protein = assay: Apolipoprotein B protein secreted from primary human hepatocytes, ELISA; format: cell-based
Procedure: as §1
Apolipoprotein secreted from into the cultured cell media was measured in the samples treated with 50 and 150 nM of oligonucleotide, using a target protein specific ELISA kit (ALerCHEK Inc., Portland, Me.). Each result represents 3 experiments.
as §2

[2] = tested on: human apolipoprotein B mRNA; assay: C57BL/6NTac-TgN(APOB100) transgenic mice, 8 weeks (Example 47): human apolipoprotein B mRNA in liver; format: in vivo, human transgene in mouse; details: C57BL/6NTac-TgN(APOB100) mice, 25 mg/kg i.p. twice a week, eight weeks; for mRNA % control, human mRNA: liver
Procedure: (§3) C57BL/6NTac-TgN(APOB100) mice were divided into two groups—one group receiving oligonucleotide treatment and control animals receiving saline treatment. After overnight fasting, mice were dosed intraperitoneally twice a week with saline or 25 mg/kg ISIS 281625 (SEQ ID No: 224) or ISIS 301012 (SEQ ID No: 247) for eight weeks. At study termination and forty eight hours after the final injections, animals were sacrificed and evaluated for target mRNA levels in liver, cholesterol and triglyceride levels, and liver enzyme levels. In addition, the endogenous mouse apolipoprotein B levels in liver were measured to evaluate any effects of these antisense oligonucletides targeted to the human apolipoprotein B.

[3] = C57BL/6NTac-TgN(APOB100) transgenic mice (Example 47): liver enzyme, cholesterol, LDL-cholesterol and triglyceride levels; format: in vivo, mouse; details: C57BL/6NTac-TgN(APOB100) mice, 25 mg/kg i.p. twice a week, eight weeks; for AST and ALT levels: normal levels ~300 IU/L
Procedure: as §3

[4] = tested on: endogenous mouse apolipoprotein B; assay: C57BL/6NTac-TgN(APOB100) transgenic mice, 8 weeks (Example 47): endogenous mouse apolipoprotein B mRNA in liver; format: in vivo; details: C57BL/6NTac-TgN(APOB100) mice, 25 mg/kg i.p. twice a week, eight weeks; for levels of the endogenous mouse apolipoprotein B in liver: specificity; for mRNA % control, mouse mRNA: liver
Procedure: as §3

[5] = tested on: human apolipoprotein B mRNA; assay: Inhibition of apolipoprotein B mRNA by dsRNAs in HepG2 cells; format: cell-based; details: 150 nM with 3.75 μg/mL LIPOFECTIN
Procedure: In accordance with the present invention, a series of nucleic acid duplexes comprising the antisense compounds of the present invention and their complements were designed to target apolipoprotein B and are shown in Table 42. All compounds in Table 42 are oligoribonucleotides 20 nucleotides in length with phosphodiester internucleoside linkages (backbones) throughout the compound. The compounds were prepared with blunt ends. […] These sequences are shown to contain uracil (U) but one of skill in the art will appreciate that uracil (U) is generally replaced by thymine (T) in DNA sequences. “Targer site” indicates the first (5′-most) nucleotide number on the particular target sequence to which the compound binds. A subset of the compounds in Table 42 are the RNA equivalents of DNA antisense oligonucleotides described herein, and, where applicable, this is noted by the ISIS # of the DNA oligonucleotide in the column “RNA equivalent of ISIS #”.
The dsRNA compounds in Table 42 were tested for their effects on human apolipoprotein mRNA in HepG2 cells. HepG2 cells were treated with 100 nM of dsRNA compounds mixed with 5 μg/mL LIPOFECTIN (Invitrogen Corporation, Carlsbad, Calif.) for a period of 16 hours. In the same experiment, HepG2 cells were also treated with 150 nM of subset of the antisense oligonucleotides described herein mixed with 3.75 μg/mL LIPOFECTIN; these compounds are listed in Table 43. Control oligonucleotides included ISIS 18078 ([…], SEQ ID NO: 888). ISIS 18078 is a chimeric oligonucleotide (“gapmer”) 20 nucleotides in length, composed of a central “gap” region consisting of 9 2′-deoxynucleotides, which is flanked on the 5′ and 3′ ends by a five-nucleotide “wing” and a six-nucleotide “wing”, respectively. The wings are composed of 2′-methoxyethyl (2′-MOE)nucleotides. The internucleoside (backbone) linkages are phosphorothioate (P═S) throughout the oligonucleotide. All cytidines are 5-methylcytidines. The duplex of ISIS 263188 ([…], SEQ ID NO: 889) and its complement was also used as a control. ISIS 263188 is an oligoribonucleotide 21 nucleotides in length with the 2 nucleotides on the 3′ end being oligodeoxyribonucleotides (TT) and with phosphodiester internucleoside linkages (backbones) throughout the compound.
Cells were treated for 4 hours, after which human apolipoprotein B mRNA expression was measured as described by examples herein. Results were normalized to untreated control cells, which were not treated with LIPOFECTIN or oligonucleotide.

[6] = 5 nM, 24 hours, "+" = expression increased
[7] = 150 nM, 24 hours, "+" = increased

Substance: 113529 (antisense e[5mC]*eT*e[5mC]*eT*eT*dA*d[5mC]*dT*dG*dT*dG*d[5mC]*dT*dG*dT*eG*eG*eA*e[5mC]*eA) [compound 113529]
- % Inhibition of apolipoprotein B mRNA ([1]; 150 nM, 24 hours): 16%
- % Inhibition of apolipoprotein B mRNA ([1]; 150 nM, 48 hours): 5%
- % Inhibition of apolipoprotein B mRNA ([1]; 300 nM, 24 hours): 10%
- % Inhibition of apolipoprotein B mRNA ([1]; 300 nM, 48 hours): 18%
- % Change in apolipoprotein B protein secretion (apolipoprotein B protein; 150 nM, 24 hours): +6%
- % Change in apolipoprotein B protein secretion (apolipoprotein B protein; 150 nM, 48 hours): +4%

Substance: ISIS 281625: SEQ ID NO: 224, 2′-MOE gapmer targeted to human apolipoprotein B (antisense eA*eG*eG*eT*eT*dA*d[5mC]*d[5mC]*dA*dG*d[5mC]*d[5mC]*dA*d[5mC]*dA*eT*eG*e[5mC]*eA*eG)
- % Inhibition of apolipoprotein B mRNA expression [1, 6]: 8%
- % Inhibition of apolipoprotein B mRNA expression ([1]; 10 nM, 24 hours (Table 37)): 22%
- % Inhibition of apolipoprotein B mRNA expression ([1]; 50 nM, 24 hours (Table 37)): 49%
- % Inhibition of apolipoprotein B mRNA expression ([1]; 150 nM, 24 hours (Table 37)): 52%
- apolipoprotein B mRNA expression ([1]; 24 hours): inhibit apolipoprotein B mRNA expression in a dose-dependent manner
- mRNA levels of the human apolipoprotein B in liver [2]: markedly decreased
- % Inhibition of apolipoprotein B protein secretion (apolipoprotein B protein; 50 nM, 24 hours): 18%
- % Inhibition of apolipoprotein B protein secretion (apolipoprotein B protein; [7]): 18%
- Cholesterol levels relative to saline treatment [3]: slightly increased
- triglyceride levels relative to saline treatment [3]: slightly decreased
- AST and ALT levels [3]: increased, yet did not exceed normal levels
- levels of the endogenous mouse apolipoprotein B in liver [4]: unaffected

Substance: 301027 (eG*e[5mC]*eT*e[5mC]*eA*d[5mC]*dT*dG*dT*dA*dT*dG*dG*dT*dT*eT*eT*eA*eT*e[5mC]; antisense) [compound 301027]
- % Inhibition of apolipoprotein B mRNA [5]: 79%

Substance: 301012 (eG*e[5mC]*e[5mC]*eT*e[5mC]*dA*dG*dT*d[5mC]*dT*dG*d[5mC]*dT*dT*d[5mC]*eG*e[5mC]*eA*e[5mC]*e[5mC]) [compound 301012]
- % Inhibition of apolipoprotein B mRNA ([1]; 10 nM, 24 hours): 65%
- % Inhibition of apolipoprotein B mRNA ([1]; 10 nM, 48 hours): 33%
- % Inhibition of apolipoprotein B mRNA ([1]; 50 nM, 24 hours): 75%
- % Inhibition of apolipoprotein B mRNA ([1]; 50 nM, 48 hours): 48%
- % Inhibition of apolipoprotein B mRNA ([1]; 150 nM, 24 hours): 90%
- % Inhibition of apolipoprotein B mRNA ([1]; 150 nM, 48 hours): 78%
- % Inhibition of apolipoprotein B mRNA ([1]; 300 nM, 24 hours): 89%
- % Inhibition of apolipoprotein B mRNA ([1]; 300 nM, 48 hours): 72%
- mRNA % control, human mRNA [2]: 23.7 % control
- % Inhibition of apolipoprotein B mRNA [5]: 77%
- % Change in apolipoprotein B protein secretion (apolipoprotein B protein; 150 nM, 24 hours): −57%
- % Change in apolipoprotein B protein secretion (apolipoprotein B protein; 150 nM, 48 hours): −75%
- Lipoproteins CHOL [3]: 145.1 mg/dL
- Lipoproteins HDL [3]: 98.6 mg/dL
- Lipoproteins LDL [3]: 36.6 mg/dL
- Lipoproteins TRIG [3]: 157.8 mg/dL
- Liver Enzymes ALT [3]: 137.4 IU/L
- Liver Enzymes AST [3]: 208.4 IU/L
- mRNA % control, mouse mRNA [4]: 94.6 % control

Substance: ISIS 301027: SEQ ID NO: 262, 2′-MOE gapmer targeted to human apolipoprotein B (antisense eG*e[5mC]*eT*e[5mC]*eA*d[5mC]*dT*dG*dT*dA*dT*dG*dG*dT*dT*eT*eT*eA*eT*e[5mC])
- % Inhibition of apolipoprotein B mRNA expression [1, 6]: 11%
- % Inhibition of apolipoprotein B mRNA expression ([1]; 10 nM, 24 hours (Table 37)): 37%
- % Inhibition of apolipoprotein B mRNA expression ([1]; 50 nM, 24 hours (Table 37)): 50%
- % Inhibition of apolipoprotein B mRNA expression ([1]; 150 nM, 24 hours (Table 37)): 70%
- apolipoprotein B mRNA expression ([1]; 24 hours): inhibit apolipoprotein B mRNA expression in a dose-dependent manner
- % Inhibition of apolipoprotein B protein secretion (apolipoprotein B protein; 50 nM, 24 hours): 21%
- % Inhibition of apolipoprotein B protein secretion (apolipoprotein B protein; [7]): 32%
- secretion of apolipoprotein B protein from cells (ELISA) (apolipoprotein B protein; 50 and 150 nM): inhibit the secretion of apolipoprotein B protein from cells in a dose-dependent manner

Substance: 281625 (antisense eA*eG*eG*eT*eT*dA*d[5mC]*d[5mC]*dA*dG*d[5mC]*d[5mC]*dA*d[5mC]*dA*eT*eG*e[5mC]*eA*eG) [compound 281625]
- mRNA % control, human mRNA [2]: 45.2 % control
- % Inhibition of apolipoprotein B mRNA [5]: 79%
- Lipoproteins CHOL [3]: 152.0 mg/dL
- Lipoproteins HDL [3]: 84.6 mg/dL
- Lipoproteins LDL [3]: 49.8 mg/dL
- Lipoproteins TRIG [3]: 171.1 mg/dL
- Liver Enzymes ALT [3]: 363.8 IU/L
- Liver Enzymes AST [3]: 265.8 IU/L
- mRNA % control, mouse mRNA [4]: 111.0 % control

Substance: ISIS 301012: SEQ ID NO: 247, antisense oligonucleotide targeted to human apolipoprotein B (antisense GCCTCAGTCTGCTTCGCACC; chemistry not given here)
- apolipoprotein B expression (mRNA) ([1]; 10, 50, 150 or 300 nM, 24 and 48 hours): inhibits apolipoprotein B expression in a dose-dependent manner
- mRNA levels of the human apolipoprotein B in liver [2]: markedly decreased
- Cholesterol levels relative to saline treatment [3]: slightly increased
- triglyceride levels relative to saline treatment [3]: slightly decreased
- AST and ALT levels [3]: increased, yet did not exceed normal levels
- levels of the endogenous mouse apolipoprotein B in liver [4]: unaffected
